Source: patent US9187396B2, “Compositions and methods for the treatment of glomerulonephritis” (Avexxin AS, priority 2009, dated 2015)

Tests used:
rat iNOS promoter = experiment: iNOS promoter activity, luciferase reporter gene assay; assay type: cell-based; conditions: IL-1β (1 nM) plus 10 μM compound
Experimental: (§1) FIGS. 4A to 4C show the effect of the inhibitors of the examples on cytokine-stimulated iNOS protein (FIG. 4A) and mRNA (FIG. 4B) expression and promoter activity in mesangiai cells. Quiescent cells were stimulated with either vehicle (DMEM), IL-1β (1 nM), in the absence (−) or presence of the indicated concentrations (in μM) of AVX001 and AVX002. EtOH, vehicle control. In FIG. 4A, cells were taken for protein extraction and equal amount of. protein were separated by SDS-PAGE and subjected to a Western blot analysis using a polyclonal antibody against iNOS at a dilution of 1:2000. Data are representative of at least 3 independent experiments giving similar results. In FIG. 4B, cells were taken for RNA extraction and subjected to quantitative PCR analysis of rat iNOS and 18 S RNA. ΔΔCt values were calculated and results are expressed as % of maximal IL-1β response and are means±S.D (n=3). In FIG. 4C, cells were transfected with the rat iNOS promoter construct plus a plasmid coding for the Renilla luciferase. After transfection, cells were stimulated with vehicle (−), IL-1β (1 nM), or IL-1β plus 10 μM of AVX001. iNOS promoter activity was calculated and results are expressed as relative luciferase units (RLU) and are means±S.D.(n=3).
(§2) To see whether this effect is due to altered gene transcription of iNOS, luciferase reporter gene assays were performed to measure iNOS promoter activity. […]

[1] = system: iNOS protein expression in mesangial cells; experiment: cytokine-stimulated iNOS protein expression, Western blot; assay type: cell-based, rat; conditions: IL-1β (1 nM)
Experimental: as §1, §2

[2] = system: Nitric oxide (NO) formation in rat renal mesangial cells; experiment: cytokine-stimulated NO formation in mesangial cells (Griess Reaction assay); assay type: cell-based; conditions: IL-1β (1 nM), supernatant
Experimental: Quiescent cells were stimulated with either DMEM (−), IL-1β (1 nM; +), in the absence or presence of the indicated concentrations of AKH-217, AVX002, or AACOCF3. Supernatants were collected and taken for nitric oxide (NO) quantification by using a Griess Reaction assay. Data are expressed as μM of NO in the supernatant and are means±S.D. (n=3).
To see whether this effect is due to altered gene transcription of iNOS, luciferase reporter gene assays were performed to measure iNOS promoter activity. A 4.5 kb fragment of the rat iNOS promoter was kindly provided by Dr. K. F. Beck (pharmazentrum frankfurt).

phospho-p65 (NFκB) = experiment: IL-1β-stimulated NFκB activation, phospho-p65 Western blot; assay type: cell-based, rat; conditions: IL-1β (2 nM) 30 min, 10 μM compound pretreated 2 h
Experimental: FIGS. 6A to 6C show the effect of the inhibitors of the examples on IL-1β-stimulated NFκB activation in mesangial cells. In FIG. 6A, quiescent cells were stimulated for 30 min with either vehicle (DMEM), or IL-1β (2 nM) in the absence (−) or presence (+) of AVX001 or AVX002 (10 μM, pretreated 2 h). Thereafter, cell lysates were separated by SDS-PAGE and subjected to a Western blot analysis using a polyclonal antibody against phospho-p65 (NFκB) (upper panel), HuR as a loading control (middle panel), and IκB (lower panel). Data in FIG. 6A show duplicates of one representative experiments. FIGS. 6B and 6C show the densitometric evaluation of NFkB and IkB bands.
NFkB activation was measured by Western blot analyses by detecting the amount of phospho-p65 which represents the active transcription factor subunit.

[3] = system: IIA-sPLA2 mRNA expression in mesangial cells; experiment: cytokine-stimulated IIA-sPLA2 mRNA expression, quantitative PCR; assay type: cell-based, rat; conditions: IL-1β (1 nM)
Experimental: (§3) FIGS. 2A to 2C show the effect of the inhibitors of the examples on cytokine-stimulated sPLA2 protein (FIG. 2A) and mRNA (FIG. 2B) expression and promoter activity in mesangial cells. Quiescent cells were stimulated with either DMEM (−), or IL-1β (1 nM) in the absence (−) or presence of AKH-217 (etOH), vehicle control. In FIG. 2A, supernatants were taken for protein precipitation and precipitated proteins were separated by SDS-PAGE and subjected to a Western blot analysis using a monoclonal antibody against rat sPLA2. […] In FIG. 2B, cells were taken for RNA extraction and subjected to quantitative PCR analysis of rat IIA-sPLA2 and 18 S RNA. ΔΔCt values were calculated and results are expressed as % of maximal IL-1β-stimulated response and are means+S.D. (n=3). In FIG. 2C, cells were transfected with the sPLA2 promoter construct plus a plasmid coding for the Renilla luciferase. After transfection, cells were stimulated for 24 h with vehicle (−), IL-1β (1 nM), or IL-1β plus 10 μM of AKH-217. sPLA2 promoter activity was calculated and results are expressed as relative luciferase units (RLU) and are means±S.D. (n=3).
(§4) It has been previously shown that the cytokine-induced PGE2 formation in mesangial cells involves both sPLA2 and cPLA2 activation (Pfeilschifter et al., 1993), we then investigated the effect of the inhibitors above on sPLA2 protein and mRNA expressions. […]

rat IIA-sPLA2 promoter = experiment: sPLA2 promoter activity, luciferase reporter gene assay; assay type: cell-based; conditions: IL-1β (1 nM) plus 10 μM compound, 24 h
Experimental: as §3, §4

mesangial cells = experiment: [3H]thymidine incorporation in mesangial cells (proliferation); assay type: cell-based, rat; conditions: insulin (100 ng/ml), IGF (50 ng/ml) or ATP (100 μM), 24 h
Experimental: FIGS. 5A and 5B show the effect of the inhibitors of the examples on [^3H]thymidine incorporation in mesangial cells. In FIG. 5A, quiescent cells were stimulated for 24 h with vehicle (DMEM), or 100 μM of ATP in the absence (−) or presence of the indicated concentrations of AVX001 or AVX002, in the presence of [^3H]thymidine. In FIG. 5B, cells were stimulated for 24 h with insulin (100 ng/ml) or IGF (50 ng/ml) in the absence (−) or presence of 10 μM of AVX001 or AVX002, in the presence of [^3H]thymidine. Thymidine incorporated into DNA was determined and results are expressed as % of control and are means±S.D. (n=3). Glomerulonephritis is characterized in a first early phase by increased mesangial apoptosis which in a second phase is replaced by an opposite event, i.e. hyperproliferation of mesangial cells. Many previous studies have shown that quiescent mesangial cells in culture can re-enter the cell cycle when exposed to various growth factors, including PDGF, insulin, insulin-like growth factor (IGF), or extracellular nucleotides such as ATP and UTP. […] In the presence of either AKH217 or AVX002, agonist-stimulated [^3H]thymidine incorporation is reduced (FIGS. 5A and 5B). Similar data were also obtained when cells were stimulated with PDGF.

[4] = system: IIA-sPLA2 protein expression in mesangial cells; experiment: cytokine-stimulated sPLA2 protein expression and secretion, Western blot; assay type: cell-based, rat; conditions: IL-1β (1 nM), supernatants
Experimental: as §3, §4

CC/C=C\C/C=C\C/C=C\C/C=C\CC/C=C/CSCC(=O)C(F)(F)F [AKH-217]
effect on IL-1β-stimulated iNOS promoter activity (rat iNOS promoter): completely lost
effect on IL-1β-induced iNOS protein expression [1]: down-regulated
effect on IL-1β-stimulated NO formation [2]: reduced in a dose-dependent manner
effect on IL-1β-induced increase of phospho-p65 (phospho-p65 (NFκB)): reduced
effect on IIA-sPLA2 mRNA expression [3]: able to reduce
effect on IL-1β-stimulated sPLA2 promoter activity (rat IIA-sPLA2 promoter): completely reduced
effect on agonist-stimulated [3H]thymidine incorporation (mesangial cells): reduced
effect on IIA-sPLA2 protein expression and secretion [4]: able to reduce
